{"source": "paper PMC12736120", "about": "“First-in-Human Phase I Clinical Trial of SLC-391, a Novel and Selective AXL Inhibitor, in Patients with Advanced Solid Tumours” (Pharmaceuticals, 2025)", "assay": "Phase I safety and tolerability (DLTs, adverse events, laboratory, ECG)", "format": "in vivo", "experimental": "This study employed a standard 3 + 3 dose escalation design with a starting dose of 25 mg QD. […] Dose escalation decisions took into account all available data from evaluable subjects as well as PK and the safety profile of prior dose cohorts. […] There was a minimum 5-day stagger between dosing of the first and second subjects in each dose cohort. Dose escalation decisions were made by a data review committee (DRC) composed of, at minimum, the medical monitor, at least one principal investigator, and a sponsor representative, per the study DRC Plan. Dose escalation could continue until 2 or more subjects in the same dose cohort experienced a dose-limiting toxicity (DLT). DLTs were defined as Grade 3 or 4 adverse drug reactions (ADRs), with grades as defined in the National Cancer Institute Common Toxicity Criteria for Adverse Events (NCI-CTCAE) version 5.0. […] The MTD was defined as the highest dose at which no more than 1 of 6 subjects experienced a DLT during cycle 1 of the study drug. The MTD would have been exceeded if 2 or more subjects in a dose cohort of up to 6 subjects experienced a DLT. Subjects could continue treatment until disease progression, unacceptable toxicity, death, withdrawal of consent, or loss to follow-up.\nBefore enrolment in the study, all patients received a detailed medical history and physical examination. Clinical laboratory evaluations included clinical chemistry, complete blood count, urinalysis, coagulation factors, and a lipid panel. Other safety assessments included vital signs, physical examination, electrocardiogram, and echocardiogram with multigated acquisition (ECHO/MUGA). Safety assessments were performed on days 1, 8, 15, and 21 of cycle 1, and on day 1 of cycles 2 to 6.", "key": {"[1]": {"conditions": "Grade 2, Overall Study (N = 35)"}}}
{"smiles": "Nc1ncc(-c2cnn(C3CCNCC3)c2)cc1-c1nnc(CC2CC2)o1", "note": "[SLC-391, 3-(5-[cyclopropylmethyl]-1,3,4-oxadiazol-2-yl)-5-(1-[piperidin-4-yl]-1H-pyrazol-4-yl)-pyridin-2-amine]", "values": [{"measurement": "TEAE: Back pain", "setting": "Grade 2, Overall QD (N = 20)", "result": "1 (5.0) n (%)"}, {"measurement": "TEAE: Blood and lymphatic system disorders", "setting": "Grade 2, Overall QD (N = 20)", "result": "1 (5.0) n (%)"}, {"measurement": "TEAE: Constipation", "setting": "Grade 2, Overall QD (N = 20)", "result": "2 (10.0) n (%)"}, {"measurement": "TEAE: Cough", "setting": "Grade 2, Overall QD (N = 20)", "result": "0 n (%)"}, {"measurement": "TEAE: Decreased appetite", "setting": "Grade 2, Overall QD (N = 20)", "result": "1 (5.0) n (%)"}, {"measurement": "TEAE: Diarrhoea", "setting": "Grade 2, Overall QD (N = 20)", "result": "3 (15.0) n (%)"}, {"measurement": "TEAE: Dysgeusia", "setting": "Grade 2, Overall QD (N = 20)", "result": "1 (5.0) n (%)"}, {"measurement": "TEAE: Dyspnoea", "setting": "Grade 2, Overall QD (N = 20)", "result": "4 (20.0) n (%)"}, {"measurement": "TEAE: Fatigue", "setting": "Grade 2, Overall QD (N = 20)", "result": "6 (30.0) n (%)"}, {"measurement": "TEAE: Gastrointestinal disorders", "setting": "Grade 2, Overall QD (N = 20)", "result": "6 (30.0) n (%)"}, {"measurement": "TEAE: General disorders and administration site conditions", "setting": "Grade 2, Overall QD (N = 20)", "result": "8 (40.0) n (%)"}, {"measurement": "TEAE: Haematuria", "setting": "Grade 2, Overall QD (N = 20)", "result": "0 n (%)"}, {"measurement": "TEAE: Infections and infestations", "setting": "Grade 2, Overall QD (N = 20)", "result": "3 (15.0) n (%)"}, {"measurement": "TEAE: Investigations", "setting": "Grade 2, Overall QD (N = 20)", "result": "0 n (%)"}, {"measurement": "TEAE: Metabolism and nutrition disorders", "setting": "Grade 2, Overall QD (N = 20)", "result": "2 (10.0) n (%)"}, {"measurement": "TEAE: Musculoskeletal and connective tissue disorders", "setting": "Grade 2, Overall QD (N = 20)", "result": "2 (10.0) n (%)"}, {"measurement": "TEAE: Nausea", "setting": "Grade 2, Overall QD (N = 20)", "result": "4 (20.0) n (%)"}, {"measurement": "TEAE: Nervous system disorders", "setting": "Grade 2, Overall QD (N = 20)", "result": "2 (10.0) n (%)"}, {"measurement": "TEAE: Oedema peripheral", "setting": "Grade 2, Overall QD (N = 20)", "result": "0 n (%)"}, {"measurement": "TEAE: Psychiatric disorders", "setting": "Grade 2, Overall QD (N = 20)", "result": "0 n (%)"}, {"measurement": "TEAE: Pyrexia", "setting": "Grade 2, Overall QD (N = 20)", "result": "1 (5.0) n (%)"}, {"measurement": "TEAE: Renal and urinary disorders", "setting": "Grade 2, Overall QD (N = 20)", "result": "1 (5.0) n (%)"}, {"measurement": "TEAE: Respiratory, thoracic, and mediastinal disorders", "setting": "Grade 2, Overall QD (N = 20)", "result": "6 (30.0) n (%)"}, {"measurement": "TEAE: Skin and subcutaneous tissue disorders", "setting": "Grade 2, Overall QD (N = 20)", "result": "3 (15.0) n (%)"}, {"measurement": "TEAE: Urinary tract infection", "setting": "Grade 2, Overall QD (N = 20)", "result": "1 (5.0) n (%)"}, {"measurement": "TEAE: Vascular disorders", "setting": "Grade 2, Overall QD (N = 20)", "result": "2 (10.0) n (%)"}, {"measurement": "TEAE: Vomiting", "setting": "Grade 2, Overall QD (N = 20)", "result": "2 (10.0) n (%)"}, {"measurement": "Any treatment-emergent adverse event (TEAE)", "setting": "[1]", "result": "19 (54.3) n (%)"}, {"measurement": "TEAE: Abdominal distension", "setting": "[1]", "result": "2 (5.7) n (%)"}, {"measurement": "TEAE: Abdominal pain", "setting": "[1]", "result": "1 (2.9) n (%)"}, {"measurement": "TEAE: Back pain", "setting": "[1]", "result": "3 (8.6) n (%)"}, {"measurement": "TEAE: Blood and lymphatic system disorders", "setting": "[1]", "result": "1 (2.9) n (%)"}, {"measurement": "TEAE: Constipation", "setting": "[1]", "result": "4 (11.4) n (%)"}, {"measurement": "TEAE: Cough", "setting": "[1]", "result": "1 (2.9) n (%)"}, {"measurement": "TEAE: Decreased appetite", "setting": "[1]", "result": "5 (14.3) n (%)"}, {"measurement": "TEAE: Diarrhoea", "setting": "[1]", "result": "5 (14.3) n (%)"}, {"measurement": "TEAE: Dysgeusia", "setting": "[1]", "result": "3 (8.6) n (%)"}, {"measurement": "TEAE: Dyspnoea", "setting": "[1]", "result": "9 (25.7) n (%)"}, {"measurement": "TEAE: Fatigue", "setting": "[1]", "result": "11 (31.4) n (%)"}, {"measurement": "TEAE: Gastrointestinal disorders", "setting": "[1]", "result": "11 (31.4) n (%)"}, {"measurement": "TEAE: General disorders and administration site conditions", "setting": "[1]", "result": "14 (40.0) n (%)"}, {"measurement": "TEAE: Haematuria", "setting": "[1]", "result": "1 (2.9) n (%)"}, {"measurement": "TEAE: Infections and infestations", "setting": "[1]", "result": "8 (22.9) n (%)"}, {"measurement": "TEAE: Investigations", "setting": "[1]", "result": "1 (2.9) n (%)"}, {"measurement": "TEAE: Metabolism and nutrition disorders", "setting": "[1]", "result": "7 (20.0) n (%)"}, {"measurement": "TEAE: Musculoskeletal and connective tissue disorders", "setting": "[1]", "result": "5 (14.3) n (%)"}, {"measurement": "TEAE: Nausea", "setting": "[1]", "result": "8 (22.9) n (%)"}, {"measurement": "TEAE: Nervous system disorders", "setting": "[1]", "result": "4 (11.4) n (%)"}, {"measurement": "TEAE: Oedema peripheral", "setting": "[1]", "result": "1 (2.9) n (%)"}, {"measurement": "TEAE: Psychiatric disorders", "setting": "[1]", "result": "2 (5.7) n (%)"}, {"measurement": "TEAE: Pyrexia", "setting": "[1]", "result": "1 (2.9) n (%)"}, {"measurement": "TEAE: Renal and urinary disorders", "setting": "[1]", "result": "2 (5.7) n (%)"}, {"measurement": "TEAE: Respiratory, thoracic, and mediastinal disorders", "setting": "[1]", "result": "12 (34.3) n (%)"}, {"measurement": "TEAE: Skin and subcutaneous tissue disorders", "setting": "[1]", "result": "3 (8.6) n (%)"}, {"measurement": "TEAE: Urinary tract infection", "setting": "[1]", "result": "4 (11.4) n (%)"}, {"measurement": "TEAE: Vascular disorders", "setting": "[1]", "result": "3 (8.6) n (%)"}, {"measurement": "TEAE: Vomiting", "setting": "[1]", "result": "3 (8.6) n (%)"}, {"measurement": "Any treatment-emergent adverse event (TEAE)", "setting": "Grade 3, Overall BID (N = 15)", "result": "6 (40.0) n (%)"}, {"measurement": "TEAE: Blood and lymphatic system disorders", "setting": "Grade 3, Overall BID (N = 15)", "result": "1 (6.7) n (%)"}, {"measurement": "TEAE: Diarrhoea", "setting": "Grade 3, Overall BID (N = 15)", "result": "1 (6.7) n (%)"}, {"measurement": "TEAE: Dyspnoea", "setting": "Grade 3, Overall BID (N = 15)", "result": "0 n (%)"}, {"measurement": "TEAE: Fatigue", "setting": "Grade 3, Overall BID (N = 15)", "result": "1 (6.7) n (%)"}, {"measurement": "TEAE: Gastrointestinal disorders", "setting": "Grade 3, Overall BID (N = 15)", "result": "1 (6.7) n (%)"}, {"measurement": "TEAE: General disorders and administration site conditions", "setting": "Grade 3, Overall BID (N = 15)", "result": "1 (6.7) n (%)"}, {"measurement": "TEAE: Infections and infestations", "setting": "Grade 3, Overall BID (N = 15)", "result": "1 (6.7) n (%)"}]}
